Article PMC4208292 (Bioorganic & medicinal chemistry letters, 2012)
“Also recorded” adds a separate entry of the source.

Key:
[1] = target: smMLCK (Homo sapiens, UniProt Q15746); assay: Radioactivity-based enzymatic kinase panel; assay type: biochemical
[2] = target: GFP-LRRK2[A2016T] (Homo sapiens, UniProt Q5S007, A2016T); assay: Ser910/Ser935 phosphorylation immunoblot in stably transfected HEK293 cells; conditions: 90 min
[3] = target: LRRK2 (Mus musculus, UniProt Q5S006); assay: Pharmacodynamic study of LRRK2 Ser910/Ser935 phosphorylation in mouse tissues; assay type: in vivo; conditions: intraperitoneal 100 mg/kg, normal mice
[4] = Pharmacokinetic profile in mice; assay type: in vivo; conditions: male, Swiss Albino, mouse, brain, iv, 1 mg/kg
[5] = target: T1, wild-type LRRK2 (GST-LRRK2(1326–2517)) (Homo sapiens, UniProt Q5S007); assay: LRRK2 enzyme activity assay
T1 sequence (Q5S007 1326-2517): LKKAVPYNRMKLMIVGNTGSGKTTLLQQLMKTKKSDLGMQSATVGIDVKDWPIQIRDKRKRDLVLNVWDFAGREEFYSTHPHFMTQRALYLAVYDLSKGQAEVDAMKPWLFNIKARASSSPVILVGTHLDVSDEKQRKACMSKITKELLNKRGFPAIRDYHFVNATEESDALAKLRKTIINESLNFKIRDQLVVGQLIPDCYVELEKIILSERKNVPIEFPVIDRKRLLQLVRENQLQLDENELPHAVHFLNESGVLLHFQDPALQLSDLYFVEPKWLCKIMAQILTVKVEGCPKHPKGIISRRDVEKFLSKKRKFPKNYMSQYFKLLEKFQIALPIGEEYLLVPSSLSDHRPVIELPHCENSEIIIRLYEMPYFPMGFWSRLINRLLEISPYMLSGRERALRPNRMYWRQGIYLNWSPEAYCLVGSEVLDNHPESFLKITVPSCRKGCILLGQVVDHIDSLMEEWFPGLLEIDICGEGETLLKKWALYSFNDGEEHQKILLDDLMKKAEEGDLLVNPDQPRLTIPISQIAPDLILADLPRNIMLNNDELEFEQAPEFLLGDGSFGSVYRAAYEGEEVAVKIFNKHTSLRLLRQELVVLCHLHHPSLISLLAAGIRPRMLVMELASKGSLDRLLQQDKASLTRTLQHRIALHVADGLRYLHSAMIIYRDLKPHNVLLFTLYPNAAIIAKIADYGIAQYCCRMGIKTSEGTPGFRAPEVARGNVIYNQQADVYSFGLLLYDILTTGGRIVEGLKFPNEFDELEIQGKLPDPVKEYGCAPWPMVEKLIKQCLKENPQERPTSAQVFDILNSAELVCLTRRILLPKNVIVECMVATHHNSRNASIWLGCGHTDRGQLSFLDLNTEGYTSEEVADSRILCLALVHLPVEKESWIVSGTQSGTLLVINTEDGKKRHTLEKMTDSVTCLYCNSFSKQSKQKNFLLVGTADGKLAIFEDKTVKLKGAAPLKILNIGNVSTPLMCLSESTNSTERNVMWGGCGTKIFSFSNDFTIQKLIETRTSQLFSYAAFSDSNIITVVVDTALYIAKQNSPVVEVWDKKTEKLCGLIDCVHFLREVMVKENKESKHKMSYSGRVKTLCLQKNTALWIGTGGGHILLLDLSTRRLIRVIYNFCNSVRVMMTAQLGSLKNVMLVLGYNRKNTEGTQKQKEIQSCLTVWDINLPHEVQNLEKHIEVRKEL

[6] = target: T2, FLT3(D835Y) (Homo sapiens, UniProt P36888, D835Y); assay: Kinase-binding assay; conditions: 10 μM; KINOMEscan profile
T2 sequence (P36888 27-993 D835Y): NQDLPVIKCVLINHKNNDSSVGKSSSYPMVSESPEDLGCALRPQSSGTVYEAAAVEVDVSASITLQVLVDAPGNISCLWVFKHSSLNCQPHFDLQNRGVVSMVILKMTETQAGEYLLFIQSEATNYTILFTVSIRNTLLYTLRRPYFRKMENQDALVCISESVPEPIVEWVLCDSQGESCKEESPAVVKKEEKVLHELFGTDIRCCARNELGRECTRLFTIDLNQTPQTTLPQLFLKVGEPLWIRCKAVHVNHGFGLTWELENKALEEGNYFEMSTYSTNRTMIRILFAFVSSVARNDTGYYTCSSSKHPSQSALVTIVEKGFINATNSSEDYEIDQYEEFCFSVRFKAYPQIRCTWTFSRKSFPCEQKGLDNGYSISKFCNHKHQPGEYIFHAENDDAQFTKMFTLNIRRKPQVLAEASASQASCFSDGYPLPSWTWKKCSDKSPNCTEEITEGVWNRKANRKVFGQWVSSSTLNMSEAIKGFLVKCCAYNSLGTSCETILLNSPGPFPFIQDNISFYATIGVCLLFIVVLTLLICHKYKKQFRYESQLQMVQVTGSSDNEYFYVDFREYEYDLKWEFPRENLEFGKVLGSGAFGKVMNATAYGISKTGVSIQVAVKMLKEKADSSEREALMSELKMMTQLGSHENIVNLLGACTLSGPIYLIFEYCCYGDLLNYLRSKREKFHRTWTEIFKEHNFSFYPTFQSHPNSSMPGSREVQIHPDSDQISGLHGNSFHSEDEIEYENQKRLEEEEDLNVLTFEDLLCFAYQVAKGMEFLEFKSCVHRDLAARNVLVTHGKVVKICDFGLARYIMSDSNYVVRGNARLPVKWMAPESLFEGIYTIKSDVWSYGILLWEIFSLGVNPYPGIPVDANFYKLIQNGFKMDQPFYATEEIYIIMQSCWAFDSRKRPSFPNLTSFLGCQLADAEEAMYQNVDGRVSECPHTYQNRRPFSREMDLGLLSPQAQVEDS

[7] = target: ALK (Homo sapiens, UniProt Q9UM73); assay: Kinase-binding assay; conditions: 10 μM; KINOMEscan profile

Chain of LRRK2 (Q5S006 whole entry): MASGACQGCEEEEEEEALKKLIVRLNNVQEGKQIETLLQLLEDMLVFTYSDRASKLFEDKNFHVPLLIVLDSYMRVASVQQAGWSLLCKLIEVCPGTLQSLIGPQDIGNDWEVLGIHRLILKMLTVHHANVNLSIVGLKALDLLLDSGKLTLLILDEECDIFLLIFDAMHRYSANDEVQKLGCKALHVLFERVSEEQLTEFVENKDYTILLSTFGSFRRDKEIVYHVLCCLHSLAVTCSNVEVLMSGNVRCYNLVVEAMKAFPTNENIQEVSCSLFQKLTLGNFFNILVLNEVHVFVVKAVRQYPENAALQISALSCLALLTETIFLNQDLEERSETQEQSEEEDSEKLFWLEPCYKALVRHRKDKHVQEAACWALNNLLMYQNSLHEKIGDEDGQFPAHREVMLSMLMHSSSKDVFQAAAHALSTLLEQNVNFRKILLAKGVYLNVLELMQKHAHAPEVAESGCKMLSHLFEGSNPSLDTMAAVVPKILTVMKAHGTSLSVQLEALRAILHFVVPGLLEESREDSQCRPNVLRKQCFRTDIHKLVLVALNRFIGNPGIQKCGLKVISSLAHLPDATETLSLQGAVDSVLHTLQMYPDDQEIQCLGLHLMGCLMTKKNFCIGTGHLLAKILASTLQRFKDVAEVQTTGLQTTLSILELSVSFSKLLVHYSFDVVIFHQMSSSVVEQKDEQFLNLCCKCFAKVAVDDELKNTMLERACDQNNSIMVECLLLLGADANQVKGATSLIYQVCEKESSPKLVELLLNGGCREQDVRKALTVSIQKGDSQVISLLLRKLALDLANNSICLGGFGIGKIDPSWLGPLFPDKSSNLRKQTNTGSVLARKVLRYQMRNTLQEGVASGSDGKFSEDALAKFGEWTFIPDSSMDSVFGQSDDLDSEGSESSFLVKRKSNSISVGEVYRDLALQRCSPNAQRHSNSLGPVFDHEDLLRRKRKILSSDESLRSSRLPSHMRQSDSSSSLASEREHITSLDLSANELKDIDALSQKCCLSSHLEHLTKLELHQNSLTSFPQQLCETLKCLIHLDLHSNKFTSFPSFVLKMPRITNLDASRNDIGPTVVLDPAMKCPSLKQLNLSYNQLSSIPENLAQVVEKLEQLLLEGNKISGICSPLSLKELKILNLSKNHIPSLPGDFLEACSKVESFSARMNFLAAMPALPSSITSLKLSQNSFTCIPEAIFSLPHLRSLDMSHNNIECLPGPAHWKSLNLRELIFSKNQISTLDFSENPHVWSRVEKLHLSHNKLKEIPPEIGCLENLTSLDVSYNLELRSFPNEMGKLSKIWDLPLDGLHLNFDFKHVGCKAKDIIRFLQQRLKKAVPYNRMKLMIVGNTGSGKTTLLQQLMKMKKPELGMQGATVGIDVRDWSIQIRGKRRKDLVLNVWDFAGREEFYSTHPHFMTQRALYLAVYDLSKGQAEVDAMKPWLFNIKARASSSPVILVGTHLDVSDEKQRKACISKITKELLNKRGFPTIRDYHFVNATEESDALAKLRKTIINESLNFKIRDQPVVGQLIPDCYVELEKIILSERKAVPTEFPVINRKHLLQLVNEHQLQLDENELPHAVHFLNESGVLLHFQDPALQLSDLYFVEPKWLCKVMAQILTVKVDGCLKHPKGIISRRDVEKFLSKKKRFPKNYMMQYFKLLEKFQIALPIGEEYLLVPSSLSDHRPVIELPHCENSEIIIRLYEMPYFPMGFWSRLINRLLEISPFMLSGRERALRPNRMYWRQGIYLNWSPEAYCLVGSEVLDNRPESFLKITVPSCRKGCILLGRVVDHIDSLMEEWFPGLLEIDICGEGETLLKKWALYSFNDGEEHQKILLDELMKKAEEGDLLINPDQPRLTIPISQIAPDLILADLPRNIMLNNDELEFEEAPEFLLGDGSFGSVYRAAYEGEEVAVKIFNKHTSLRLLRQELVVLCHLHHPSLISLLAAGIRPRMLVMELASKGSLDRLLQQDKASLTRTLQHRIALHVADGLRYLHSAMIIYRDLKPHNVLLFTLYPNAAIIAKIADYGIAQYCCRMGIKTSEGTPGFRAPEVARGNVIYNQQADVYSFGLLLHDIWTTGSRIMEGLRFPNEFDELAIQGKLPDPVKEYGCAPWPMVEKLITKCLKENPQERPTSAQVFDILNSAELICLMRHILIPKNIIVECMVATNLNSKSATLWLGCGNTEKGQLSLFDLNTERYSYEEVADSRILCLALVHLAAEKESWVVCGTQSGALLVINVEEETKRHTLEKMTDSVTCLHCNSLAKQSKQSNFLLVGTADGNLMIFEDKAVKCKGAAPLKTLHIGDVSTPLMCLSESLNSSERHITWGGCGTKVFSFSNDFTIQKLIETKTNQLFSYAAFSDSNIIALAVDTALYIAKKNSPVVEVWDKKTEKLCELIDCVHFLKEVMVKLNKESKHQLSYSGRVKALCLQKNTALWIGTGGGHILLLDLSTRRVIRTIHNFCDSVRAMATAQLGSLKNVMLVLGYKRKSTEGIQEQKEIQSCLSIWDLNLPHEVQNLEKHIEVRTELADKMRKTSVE
Chain of GFP-LRRK2[A2016T] (Q5S007 whole entry A2016T): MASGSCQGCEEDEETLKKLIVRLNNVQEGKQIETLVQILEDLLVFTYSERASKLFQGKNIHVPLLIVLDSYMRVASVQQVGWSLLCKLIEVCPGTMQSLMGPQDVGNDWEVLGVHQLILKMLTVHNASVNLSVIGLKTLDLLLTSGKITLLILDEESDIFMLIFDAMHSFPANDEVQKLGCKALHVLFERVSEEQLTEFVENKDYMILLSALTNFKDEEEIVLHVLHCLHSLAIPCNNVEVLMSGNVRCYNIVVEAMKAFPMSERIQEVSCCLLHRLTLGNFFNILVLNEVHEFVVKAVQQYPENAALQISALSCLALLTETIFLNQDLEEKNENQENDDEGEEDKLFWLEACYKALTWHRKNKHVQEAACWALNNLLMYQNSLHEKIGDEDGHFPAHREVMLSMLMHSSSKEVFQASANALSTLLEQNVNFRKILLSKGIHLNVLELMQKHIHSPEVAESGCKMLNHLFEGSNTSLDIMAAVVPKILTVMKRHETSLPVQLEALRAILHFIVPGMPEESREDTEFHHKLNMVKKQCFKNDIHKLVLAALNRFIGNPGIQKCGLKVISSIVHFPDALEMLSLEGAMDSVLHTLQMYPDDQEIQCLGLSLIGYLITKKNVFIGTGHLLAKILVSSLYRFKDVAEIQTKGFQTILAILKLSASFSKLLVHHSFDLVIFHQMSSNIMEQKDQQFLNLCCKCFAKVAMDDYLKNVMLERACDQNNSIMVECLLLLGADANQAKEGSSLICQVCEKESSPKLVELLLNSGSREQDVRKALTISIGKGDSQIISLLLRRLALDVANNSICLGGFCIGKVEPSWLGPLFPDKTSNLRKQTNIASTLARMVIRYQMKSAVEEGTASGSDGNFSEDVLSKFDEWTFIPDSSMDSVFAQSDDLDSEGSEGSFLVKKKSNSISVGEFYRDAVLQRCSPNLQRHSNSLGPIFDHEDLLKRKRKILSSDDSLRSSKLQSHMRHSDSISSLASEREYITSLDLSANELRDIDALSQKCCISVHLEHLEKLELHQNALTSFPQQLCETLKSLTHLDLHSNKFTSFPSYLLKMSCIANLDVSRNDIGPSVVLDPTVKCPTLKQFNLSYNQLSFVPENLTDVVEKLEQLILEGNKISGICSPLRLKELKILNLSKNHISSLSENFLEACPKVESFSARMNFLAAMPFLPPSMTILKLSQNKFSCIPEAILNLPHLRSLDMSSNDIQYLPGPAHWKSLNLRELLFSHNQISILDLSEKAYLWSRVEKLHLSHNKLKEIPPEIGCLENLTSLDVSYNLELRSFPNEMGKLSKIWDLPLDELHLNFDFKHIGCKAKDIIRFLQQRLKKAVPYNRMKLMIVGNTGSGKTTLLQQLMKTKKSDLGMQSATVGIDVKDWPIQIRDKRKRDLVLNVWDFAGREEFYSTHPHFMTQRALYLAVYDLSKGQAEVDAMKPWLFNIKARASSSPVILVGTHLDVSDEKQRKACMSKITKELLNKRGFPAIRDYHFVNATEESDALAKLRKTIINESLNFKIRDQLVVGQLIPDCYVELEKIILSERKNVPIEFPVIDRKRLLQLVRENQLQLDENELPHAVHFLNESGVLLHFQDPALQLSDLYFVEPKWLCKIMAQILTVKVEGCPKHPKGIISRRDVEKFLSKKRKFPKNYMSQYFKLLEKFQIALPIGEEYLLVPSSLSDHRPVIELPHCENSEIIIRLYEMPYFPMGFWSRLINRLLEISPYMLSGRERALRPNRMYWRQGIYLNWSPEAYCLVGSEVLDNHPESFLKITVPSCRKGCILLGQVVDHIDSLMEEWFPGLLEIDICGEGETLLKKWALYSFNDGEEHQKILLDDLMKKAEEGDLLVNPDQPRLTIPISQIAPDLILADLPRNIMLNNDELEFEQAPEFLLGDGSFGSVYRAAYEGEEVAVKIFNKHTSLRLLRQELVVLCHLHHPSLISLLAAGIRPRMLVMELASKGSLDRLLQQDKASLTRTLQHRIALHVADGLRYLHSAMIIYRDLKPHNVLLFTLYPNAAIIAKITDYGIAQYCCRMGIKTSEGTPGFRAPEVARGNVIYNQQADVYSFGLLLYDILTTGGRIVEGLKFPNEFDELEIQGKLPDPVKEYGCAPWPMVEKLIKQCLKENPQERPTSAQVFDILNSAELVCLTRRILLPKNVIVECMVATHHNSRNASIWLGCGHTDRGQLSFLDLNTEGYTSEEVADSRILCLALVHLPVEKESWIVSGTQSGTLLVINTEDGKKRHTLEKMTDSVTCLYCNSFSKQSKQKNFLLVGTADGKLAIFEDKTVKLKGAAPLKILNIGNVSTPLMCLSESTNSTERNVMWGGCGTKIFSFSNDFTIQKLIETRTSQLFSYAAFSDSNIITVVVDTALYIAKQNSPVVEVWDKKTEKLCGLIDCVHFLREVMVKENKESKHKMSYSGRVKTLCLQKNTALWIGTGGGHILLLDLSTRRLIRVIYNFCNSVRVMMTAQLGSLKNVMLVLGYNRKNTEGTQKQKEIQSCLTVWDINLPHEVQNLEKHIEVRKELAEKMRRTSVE

inhibition at 10 µM [1]: > 50% | concentration inducing dephosphorylation of Ser910 and 935 [2]: 1 to 3 µM | clearance [4]: 22.1 mL/min/kg | IC50 [5]: ~10 nM | ambit score [6]: < 10 | ambit score [7]: < 10
SMILES: O=C(Nc1cccnc1)c1cc(-c2ccnc(F)c2)ccc1OCc1ccccc1 [GSK2578215A, 2-(benzyloxy)-5-(2-fluoropyridin-4-yl)-N-(pyridin-3-yl)benzamide]
inhibition of LRRK2 Ser910 or Ser935 phosphorylation in brain ([3]; brain): no inhibition; also recorded: failed to induce significant inhibition | Ser910 and Ser935 dephosphorylation of LRRK2 in kidney ([3]; kidney): complete Ser910 and Ser935 dephosphorylation | Ser910 and Ser935 dephosphorylation of LRRK2 in spleen ([3]; spleen): complete Ser910 and Ser935 dephosphorylation
